Reference: the supplement of paper PMC10721915

Key:
Test in all cases: relative cell growth vs untreated control (GI, NCI-DTP normalisation with time-zero) (fraction of control growth); higher = more growth / less inhibition
Details in all cases: treatment time: 120 h
MHHES1 = tested on: MHHES1
Method: (§1)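 Cancer cell lines in 96-well plates were treated 48 h after seeding with M4076 (ATM inhibitor) and berzosertib (ATR inhibitor), alone or mixed, in 4-fold dilutions for 120 h. Protein was read by sulforhodamine B staining, background-subtracted and normalised NCI-DTP style to untreated control growth. Rows with one concentration equal to 0 are monotherapy.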

HEPG2 = tested on: HEPG2
Method: as §1

WSUNHL = tested on: WSUNHL
Method: as §1

ASPC1 = tested on: ASPC1
Method: as §1

HT29 = tested on: HT29
Method: as §1

SAOS2 = tested on: SAOS2
Method: as §1

U2OS = tested on: U2OS
Method: as §1

MV411 = tested on: MV411
Method: as §1

MDAMB435 = tested on: MDAMB435
Method: as §1

RAMOS = tested on: RAMOS
Method: as §1

COc1cc2ncc3c(c2cc1-c1cn(C)nc1C)n(-c1c(F)cncc1OC)c(=O)n3C [M4076] + CNCc1ccc(-c2cc(-c3nc(-c4ccc(S(=O)(=O)C(C)C)cc4)cnc3N)on2)cc1 [berzosertib]
relative cell growth
Details | ASPC1 | HEPG2 | HT29 | MDAMB435 | MHHES1 | MV411 | RAMOS | SAOS2 | U2OS | WSUNHL
concentration of first compound 0.0195 µM, concentration of partner 0 M | 1.2 | 1.41 | 1.3 | 1.09 | 1.19 | 1.23 | 1.04 | 1.16 | 1.1 | 1.22
concentration of first compound 0.0195 µM, concentration of partner 0.2 µM | 0.322 | 0.0154 | 0.0171 | 1.01 | 0.662 | 1.18 | 1.14 | 0.735 | 0.876 | 1.48
concentration of first compound 0.0781 µM, concentration of partner 0 M | 1.08 | 1.4 | 1.23 | 1.09 | 1.15 | 1.28 | 1.12 | 1.14 | 1.09 | 1.26
concentration of first compound 0.0781 µM, concentration of partner 0.2 µM | 0.194 | 0.000629 | 0.0537 | 1.05 | 0.505 | 1.09 | 1.17 | 0.657 | 0.865 | 1.47
concentration of first compound 0.313 µM, concentration of partner 0 M | 1.2 | 1.23 | 1.19 | 1.04 | 1.05 | 1.24 | 1.01 | 1.05 | 0.972 | 0.983
concentration of first compound 0.313 µM, concentration of partner 0.2 µM | 0.0757 | -0.027 | 0.00799 | 0.622 | 0.17 | 0.887 | 1.12 | 0.319 | 0.504 | 1.07
concentration of first compound 1 µM, concentration of partner 0 M | 0.84 | 0.829 | 0.888 | 0.988 | 0.809 | 0.903 | 0.888 | 0.782 | 0.916 | 0.649
concentration of first compound 1 µM, concentration of partner 0.0195 µM | 0.803 | 0.596 | 0.81 | 1.01 | 0.753 | 1.22 | 0.918 | 0.871 | 0.798 | 0.896
concentration of first compound 1 µM, concentration of partner 0.0781 µM | 0.418 | 0.0729 | 0.27 | 0.701 | 0.224 | 1.18 | 0.945 | 0.482 | 0.611 | 0.716
concentration of first compound 1 µM, concentration of partner 0.313 µM | -0.0794 | -0.0203 | -0.0312 | 0.14 | 0.0239 | 0.312 | 0.751 | 0.119 | 0.191 | -0.00911
concentration of first compound 1 µM, concentration of partner 1.25 µM | -0.118 | -0.023 | -0.0506 | -0.00922 | -0.0145 | -0.0158 | 0.0625 | -0.0926 | -0.111 | -0.0958
concentration of first compound 1 µM, concentration of partner 5 µM | -0.115 | -0.0325 | -0.0437 | -0.0254 | -0.0266 | -0.0221 | 0.0153 | -0.1 | -0.131 | -0.11
concentration of first compound 1.25 µM, concentration of partner 0 M | 0.943 | 1.16 | 1.11 | 1.03 | 0.97 | 1.09 | 0.914 | 0.871 | 0.935 | 0.572
concentration of first compound 1.25 µM, concentration of partner 0.2 µM | 0.0458 | -0.0218 | 0.00308 | 0.411 | 0.0696 | 0.746 | 1.09 | 0.146 | 0.312 | 0.294
concentration of first compound 5 µM, concentration of partner 0 M | 0.675 | 0.843 | 0.933 | 0.92 | 0.65 | 0.708 | 0.778 | 0.652 | 0.852 | 0.166
concentration of first compound 5 µM, concentration of partner 0.2 µM | 0.0314 | -0.0276 | -0.00294 | 0.185 | 0.05 | 0.603 | 0.915 | 0.113 | 0.229 | 0.0497

CNCc1ccc(-c2cc(-c3nc(-c4ccc(S(=O)(=O)C(C)C)cc4)cnc3N)on2)cc1 [berzosertib] + COc1cc2ncc3c(c2cc1-c1cn(C)nc1C)n(-c1c(F)cncc1OC)c(=O)n3C [M4076]
relative cell growth, concentration of partner 0 M
Details | ASPC1 | HEPG2 | HT29 | MDAMB435 | MHHES1 | MV411 | RAMOS | SAOS2 | U2OS | WSUNHL
concentration of first compound 0.0195 µM | 1.3 | 1.09 | 1.22 | 1.07 | 1.26 | 1.25 | 1.1 | 1.16 | 1.07 | 1.44
concentration of first compound 0.0781 µM | 1.07 | 0.33 | 0.613 | 1.06 | 1.21 | 1.32 | 1.11 | 1.11 | 0.977 | 1.68
concentration of first compound 0.2 µM | 0.344 | 0.0562 | 0.113 | 0.893 | 0.599 | 0.778 | 1.16 | 0.645 | 0.906 | 1.18
concentration of first compound 0.313 µM | 0.0569 | 0.0114 | -0.0285 | 0.656 | 0.436 | 0.429 | 1.05 | 0.559 | 0.9 | 0.779
concentration of first compound 1.25 µM | -0.0955 | -0.033 | -0.0598 | -0.0138 | 0.0564 | -0.0241 | 0.322 | 0.0446 | 0.0428 | -0.0504
concentration of first compound 5 µM | -0.077 | -0.0501 | -0.0555 | -0.0273 | -0.0244 | -0.0294 | 0.103 | -0.116 | -0.0411 | -0.0908
